Where two headings read alike, the source gives them in different places.
Assay: Single oral dose human plasma pharmacokinetics of D, DA and DOH after Cogni.Q
Assay type: in vivo
Text: Ten healthy male and 10 female subjects were recruited by public announcement in Amarillo, TX, from January 2013 to April 2013 (see Fig. 1 CONSORT diagram). The sample size for each gender was chosen without power calculation due to the lack of prior knowledge of PK parameter variance in humans. After receiving informed consent verbally and in writing, the health status of each candidate was confirmed by health questionnaire, plasma biochemistry (hepatic and renal functions), complete blood cell count (CBC), and a physical examination by a participating academic physician. Subjects with diabetes, or pregnant, perinatal and breastfeeding women were excluded. For the 48 hours preceding study visit until the final blood draw, all subjects were instructed to avoid taking any prescription or nonprescription drugs, vitamins, and herbal/dietary supplements. Each subject was compensated for participating in the study per TTUHSC IRB approved rate.
Eligible subjects arrived at our clinical facility at 0700 (7:00 am) on the test day after a fast beginning at 2200 (10:00 pm) the previous night. After a brief review of vital signs, the nurse placed an intravenous (IV) line with saline drip in one arm of each subject. A baseline pre-dose (hour 0) blood sample was drawn through the IV line; after that subjects swallowed four Cogni.Q vegicaps with 240 mL of water at hour 0 under direct supervision. Subjects stayed at the clinical facility in their room for the next 12 hours, returning at 24 and 48 hours. Blood was drawn at baseline (hour 0) and at 0.5, 1, 2, 3, 4, 6, 8, 12, 24 and 48 hours after dosing into Vacutainer Blood Collection Tube (Becton-Dickinson, Franklin Lakes, NJ. Product Number: 367874, Sodium heparin was used as anti-coagulant). Water was allowed as desired except for within the first hour after Cogni.Q consumption. All subjects received standardized meals at post-dose hours 4.5 and 9.5 but no food was allowed for at least the first 4 hours post-dose.
Plasma was prepared by centrifuging the heparinized blood at 1000 g for 15 minutes at room temperature. Urine samples (40mL) were collected within time spans of 0–4, 4–8, 8–12 and 12–24 hours (total volume of urine was recorded). All plasma and urine samples were put on dry ice immediately and then stored at -80°C freezer until analysis.
Plasma samples were extracted with a validated solid supported liquid extraction (SLE) method facilitated with a positive pressure manifold (Biotage, Charlotte, NC). Briefly, 100 μL of plasma sample was spiked with 5 μL of 10 ng/μL prednisolone (IS), diluted with 200 μL of LC-MS grade water, mixed and loaded onto ISOLUTE SLE+ 400 μL Array Well cartridges (Biotage, Charlotte, NC). A pulse of minimum positive pressure was applied to facilitate the samples absorption into the cartridges. After the samples were allowed to absorb for 5 min, the compounds were eluted with 2×500 μL tert-butyl methyl ether. The eluent was dried in a Speedvac and the resulting residue was reconstituted in 50 μL of methanol for UHPLC-MS/MS analysis.
Eight-point calibration curves were constructed for D, DA and DOH, at concentrations of 0.1, 0.5, 1, 5, 10, 20, 50 and 100 μg/L for D and DA, and at concentrations of 1, 5, 10, 50, 100, 200, 500 and 1000 μg/L for DOH, respectively. The linear range was 0.1–100 μg/L (0.3–300 nmol/L), 0.1–100 μg/L (0.3–300 nmol/L) and 1–1000 μg/L (4–4000 nmol/L) for D, DA and DOH, respectively. The inter- and intra-assay CV were lower than 6.5% and the accuracy was between 90–105%. Calibration curve was run for each batch of samples analyzed. The mean calibration curve correlation coefficient (r) for D, DA and DOH was 0.999, 0.999 and 0.998, respectively (data from 7–10 calibration curves). In addition, 70% of the plasma samples were extracted and analyzed twice, the data from two replicate analyses were nearly identical and combined for final data analyses and presentation. […]

Compound: CC(C)=CC(=O)O[C@H]1Cc2cc3ccc(=O)oc3cc2OC1(C)C [D, decursin]
- Cmax (both sexes, human, plasma, oral, 4 Cogni.Q vegicaps, n=20 (S1 Table), read-out: Cmax, nM, Grand Mean): 5.3 nM
- Tmax (both sexes, human, plasma, oral, 4 Cogni.Q vegicaps, n=20 (S1 Table), read-out: Tmax, h, Grand Mean): 2.1 h
- half-life (both sexes, human, plasma, oral, all subjects, outliers excluded (S1 Table), read-out: Terminal t1/2, h, Grand Mean (converted)): 17.4 h
- AUC(0-t) (both sexes, human, plasma, oral, n=20 (S1 Table), read-out: AUC0-48h, Grand Mean): 37.1 nmol·h/L
- AUC(0-t) (both sexes, human, plasma, po, all human subjects n = 20, single oral dose Cogni.Q, plasma (Table 2), read-out: AUC0–48h, nmol/L, Mean (SD)): 37.1 nmol·h/L
- AUC(0-t) (both sexes, human, twenty healthy subjects, single oral dose Cogni.Q, plasma (abstract), read-out: mean area under the curve (AUC0-48h)): 37 nmol·h/L
- Tmax (both sexes, all human subjects n = 20, single oral dose 4 Cogni.Q vegicaps (119 mg D, 77 mg DA), plasma, read-out: Tmax, h, Mean (SD)): 2.1 h
- half-life (both sexes, all human subjects, four outlier subjects excluded, single oral dose Cogni.Q, plasma, read-out: Terminal t1/2, h, Mean (SD) (converted)): 17.4 h
- AUC(0-t) (female, human, plasma, oral, 4 Cogni.Q vegicaps, Women n=10 (S1 Table), read-out: AUC0-48h, Mean, F): 45.7 nmol·h/L
- Cmax (female, human, plasma, oral, 4 Cogni.Q vegicaps, Women n=10 (S1 Table), read-out: Cmax, nM, Mean, F): 5.37 nM
- Tmax (female, human, plasma, oral, Women n=10 (S1 Table), read-out: Tmax, h, Mean, F): 2.4 h
- half-life (female, human, plasma, oral, Women, outliers excluded (S1 Table), read-out: Terminal t1/2, h, Mean, F (converted)): 17 h
- AUC(0-t) (female, human, plasma, po, Women N = 10, single oral dose Cogni.Q, plasma, read-out: AUC0–48h, h.nmol/L Mean (SD)): 45.7 nmol·h/L
- Cmax (female, human, plasma, po, Women N = 10, single oral dose Cogni.Q, plasma, read-out: Cmax, nmol/L, Mean (SD)): 5.4 nM
- Tmax (female, human, plasma, po, Women N = 10, single oral dose Cogni.Q, plasma, read-out: Tmax, h, Mean (SD)): 2.4 h
- half-life (female, human, plasma, po, Women, outlier subjects excluded, single oral dose Cogni.Q, plasma, read-out: T1/2, h, terminal Mean (SD) (converted)): 17 h
- half-life (human, plasma, oral, 4 Cogni.Q vegicaps, subject S1 (115 lb), outlier, excluded from means, read-out: Terminal t1/2, h (converted)): 173 h
- AUC(0-t) (human, plasma, oral, 4 Cogni.Q vegicaps, subject S1 (115 lb), read-out: AUC0-48h): 45 nmol·h/L
- Cmax (human, plasma, oral, 4 Cogni.Q vegicaps, subject S1 (115 lb), read-out: Cmax): 4.7 nM
- Tmax (human, plasma, oral, 4 Cogni.Q vegicaps, subject S1 (115 lb), read-out: Tmax): 1 h
- AUC(0-t) (human, plasma, oral, 4 Cogni.Q vegicaps, subject S2 (194 lb), read-out: AUC0-48h): 14.8 nmol·h/L
- Cmax (human, plasma, oral, 4 Cogni.Q vegicaps, subject S2 (194 lb), read-out: Cmax): 2 nM
- half-life (human, plasma, oral, 4 Cogni.Q vegicaps, subject S2 (194 lb), read-out: Terminal t1/2, h (converted)): 16.9 h
- Tmax (human, plasma, oral, 4 Cogni.Q vegicaps, subject S2 (194 lb), read-out: Tmax): 2 h
- half-life (human, plasma, oral, 4 Cogni.Q vegicaps, subject S3 (170 lb), outlier, excluded from means, read-out: Terminal t1/2, h (converted)): 69.6 h
- AUC(0-t) (human, plasma, oral, 4 Cogni.Q vegicaps, subject S3 (170 lb), read-out: AUC0-48h): 9.8 nmol·h/L
- Cmax (human, plasma, oral, 4 Cogni.Q vegicaps, subject S3 (170 lb), read-out: Cmax): 1.6 nM
- Tmax (human, plasma, oral, 4 Cogni.Q vegicaps, subject S3 (170 lb), read-out: Tmax): 4 h
- AUC(0-t) (human, plasma, oral, 4 Cogni.Q vegicaps, subject S4 (170 lb), read-out: AUC0-48h): 119 nmol·h/L
- Cmax (human, plasma, oral, 4 Cogni.Q vegicaps, subject S4 (170 lb), read-out: Cmax): 13.2 nM
- half-life (human, plasma, oral, 4 Cogni.Q vegicaps, subject S4 (170 lb), read-out: Terminal t1/2, h (converted)): 10.8 h
- Tmax (human, plasma, oral, 4 Cogni.Q vegicaps, subject S4 (170 lb), read-out: Tmax): 2 h
- AUC(0-t) (human, plasma, oral, 4 Cogni.Q vegicaps, subject S5 (161 lb), read-out: AUC0-48h): 34.3 nmol·h/L
- Cmax (human, plasma, oral, 4 Cogni.Q vegicaps, subject S5 (161 lb), read-out: Cmax): 2 nM
- half-life (human, plasma, oral, 4 Cogni.Q vegicaps, subject S5 (161 lb), read-out: Terminal t1/2, h (converted)): 22.8 h
- Tmax (human, plasma, oral, 4 Cogni.Q vegicaps, subject S5 (161 lb), read-out: Tmax): 1 h
- AUC(0-t) (human, plasma, oral, 4 Cogni.Q vegicaps, subject S6 (120 lb), read-out: AUC0-48h): 94 nmol·h/L
- Cmax (human, plasma, oral, 4 Cogni.Q vegicaps, subject S6 (120 lb), read-out: Cmax): 13.4 nM
- half-life (human, plasma, oral, 4 Cogni.Q vegicaps, subject S6 (120 lb), read-out: Terminal t1/2, h (converted)): 12.8 h
- Tmax (human, plasma, oral, 4 Cogni.Q vegicaps, subject S6 (120 lb), read-out: Tmax): 3 h
- AUC(0-t) (human, plasma, oral, 4 Cogni.Q vegicaps, subject S7 (180 lb), read-out: AUC0-48h): 23.3 nmol·h/L
- Cmax (human, plasma, oral, 4 Cogni.Q vegicaps, subject S7 (180 lb), read-out: Cmax): 3.6 nM
- half-life (human, plasma, oral, 4 Cogni.Q vegicaps, subject S7 (180 lb), read-out: Terminal t1/2, h (converted)): 24.7 h
- Tmax (human, plasma, oral, 4 Cogni.Q vegicaps, subject S7 (180 lb), read-out: Tmax): 4 h
- AUC(0-t) (human, plasma, oral, 4 Cogni.Q vegicaps, subject S8 (160 lb), read-out: AUC0-48h): 79.2 nmol·h/L
- Cmax (human, plasma, oral, 4 Cogni.Q vegicaps, subject S8 (160 lb), read-out: Cmax): 9.6 nM
- half-life (human, plasma, oral, 4 Cogni.Q vegicaps, subject S8 (160 lb), read-out: Terminal t1/2, h (converted)): 9.9 h
- Tmax (human, plasma, oral, 4 Cogni.Q vegicaps, subject S8 (160 lb), read-out: Tmax): 3 h
- AUC(0-t) (human, plasma, oral, 4 Cogni.Q vegicaps, subject S9 (158 lb), read-out: AUC0-48h): 20.6 nmol·h/L
- Cmax (human, plasma, oral, 4 Cogni.Q vegicaps, subject S9 (158 lb), read-out: Cmax): 2.4 nM
- half-life (human, plasma, oral, 4 Cogni.Q vegicaps, subject S9 (158 lb), read-out: Terminal t1/2, h (converted)): 24 h
- Tmax (human, plasma, oral, 4 Cogni.Q vegicaps, subject S9 (158 lb), read-out: Tmax): 1 h

— publication PMC4335020, “Single Oral Dose Pharmacokinetics of Decursin and Decursinol Angelate in Healthy Adult Men and Women” (PLoS ONE, 2015)
